Test results published in US6596871B2, “Polymorphic forms of 6-[4-(1-cyclohexyl-1h-tetraol-5-yl)butoxy]-3,4-dihydro-2(1H)-quinolinone” (priority 2001, dated 2003).

Tests used:
[1] = aqueous solubility of cilostazol Form A; type: physicochemical; details: Form A as prepared by the procedures of the '479 patent
[2] = bioavailability of cilostazol Form A; type: in vivo; details: Form A as prepared by the procedures of the '479 patent
[3] = stability of the polymorphic form; type: physicochemical
[4] = relative solubility inferred from DSC melting behaviour; type: physicochemical; details: suggested by lower melting point / weaker crystal packing forces in DSC thermogram (FIG. 8)
Source text: (§1) Characterization of Form A of cilostazol, Form B of cilostazol, and Form C of cilostazol was further completed using DSC thermograms, shown in FIGS. 3, 4, and 5, respectively, with DSC thermograms for combinations of Form A and Form B; Form B and Form C; and Forms A, B, and C are shown in FIGS. 6, 7, and 8 respectively. DSC data were generated using a Mettler-Toledo DSC 821^e (Columbus, Ohio) with a Julabo FT900 intercooler chiller (Julabo Company; Allentown, Pa.). In general, samples were analyzed in a vented, sealed aluminum pan. Because the endothermic peak may vary depending upon the rate of heating and the calibration and precision of the instrument, with the amount of peak variation dependent upon the heating rate used, all thermograms included herein were run under the same, consistent conditions: heating at 10° C. per minute under a nitrogen purge at 40 mL/minute.
FIG. 8 illustrates a DSC thermogram for the combination of Form A, Form B and Form C having a second heating cycle with a maximum temperature of about 110° C. with a holding time of about 30 minutes. The peaks in the third heating cycle show a Form A to Form B to Form C peak area ratio of approximately 8:2:1, respectively, with the relative amount of Form A, Form B and Form C further variable on the heat of enthalpy of each polymorphic form.

[5] = solid state phase transformation of disturbed/stressed sample on heating by DSC; type: physicochemical; details: sample disturbed (scratching/stress), heated by DSC from 30° C. to approximately 200° C. at 10° C. per minute
Source text: as §1, with “mL/minute. The resultant sample of Example 1A was disturbed with scratching, which caused the cilostazol sample to undergo a solid state phase transformation at approximately 119° C. followed by an endotherm of melt at approximately 160° C. (Form A) during heating by DSC from 30° C. to approximately 200° C. at 10° C. per minute. When the sample is stressed and reheated (as detailed in Example 2A), the sample undergoes a solid state phase transformation at approximately 147° C. followed by an endotherm of melt at about 160° C. […]” for “mL/minute.”

Compound	aqueous solubility [1]	bioavailability [2]	stability of the crystalline form [3]	solubility relative to Form A [4]	solid state phase transformation temperature (to Form A) [5]
O=C1CCc2cc(OCCCCc3nnnn3C3CCCCC3)ccc2N1 [Form A, 6-[4-(1-cyclohexyl-1H-tetrazol-5-yl)butoxy]-3,4-dihydro-2(1H)-quinolinone]	low	low			
O=C1CCc2cc(OCCCCc3nnnn3C3CCCCC3)ccc2N1 [Form B, 6-[4-(1-cyclohexyl-1H-tetrazol-5-yl)butoxy]-3,4-dihydro-2(1H)-quinolinone]			stable	more soluble than Form A	approximately 119 °C
O=C1CCc2cc(OCCCCc3nnnn3C3CCCCC3)ccc2N1 [Form C, 6-[4-(1-cyclohexyl-1H-tetrazol-5-yl)butoxy]-3,4-dihydro-2(1H)-quinolinone]			stable	more soluble than Form A	approximately 147 °C
